Where two headings read alike, the source gives them in different places.
Legend:
OCT2 = biological target: T1, OCT2 (Homo sapiens, UniProt O15244); assay: Inhibition of model substrate uptake in OCT2-overexpressing HEK293 cells; details: for inhibition at 5 min, 20 μM: human, OCT2-overexpressing HEK293 cells
T1 sequence (O15244 1-555): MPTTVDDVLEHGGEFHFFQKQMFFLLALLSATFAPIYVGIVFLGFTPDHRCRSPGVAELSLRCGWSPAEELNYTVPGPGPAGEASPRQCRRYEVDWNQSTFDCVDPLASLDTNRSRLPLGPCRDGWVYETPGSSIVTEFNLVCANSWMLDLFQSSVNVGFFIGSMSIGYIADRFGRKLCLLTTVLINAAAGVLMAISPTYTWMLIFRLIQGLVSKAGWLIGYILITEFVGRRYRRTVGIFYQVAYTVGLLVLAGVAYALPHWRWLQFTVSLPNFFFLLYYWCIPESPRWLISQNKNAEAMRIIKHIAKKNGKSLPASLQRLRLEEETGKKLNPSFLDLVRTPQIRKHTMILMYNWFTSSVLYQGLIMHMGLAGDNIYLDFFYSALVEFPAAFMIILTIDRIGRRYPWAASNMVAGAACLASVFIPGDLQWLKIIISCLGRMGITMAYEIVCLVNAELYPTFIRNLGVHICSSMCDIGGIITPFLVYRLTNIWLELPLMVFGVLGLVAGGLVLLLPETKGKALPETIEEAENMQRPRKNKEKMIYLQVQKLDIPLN
Method: (§1) All experiments were carried out in transporter-overexpressing HEK293 cells. OCT1-, OCT2-, NET-, DAT-, and SERT-overexpressing cells as well as the empty-vector transfected control cell line were generated as described earlier,[26]−[28] whereas the OCT3-overexpressing HEK293 cells were generous gift of from Drs. Koepsell and Gorbulev (University of Würzburg, Germany). All cells were cultivated in Dulbecco’s modified Eagle’s medium (DMEM) supplemented with 10% (v/v) FCS, penicillin (100 U/mL), and streptomycin (100 μg/mL) and kept in culture for no longer than 30 passages.
(§2) As for the transport experiments, 300,000 HEK293 cells were plated in poly-D-lysine-coated 24-well plates 2 days ahead of the experiment. On every plate, two wells of empty vector (EV)-transfected cells were used as a control to account for the passive influx of the model substrate, and two wells of transporter-overexpressing cells were used to determine the noninhibited uptake of the model substrate. Cells were initially washed once with 37 °C HBSS+ and then incubated with 2 μM model substrate (0.2 μM for MPP^+ uptake by MATs) with and without 20 μM inhibitor for 5 min. For concentration-dependent inhibition experiments, the cells were incubated with increasing inhibitor concentrations. The incubation was terminated by aspiration of the buffer before cells were washed twice with ice-cold HBSS+ and lysed in 80% acetonitrile. Cell lysates were transferred into a black 96-well plate for the fluorescence measurement of ASP^+ or used for sample preparation for LC–MS/MS analysis. […] Fluorescence quantification was performed in technical duplicates.
(§3) Transporter-mediated net uptake was calculated as the difference between uptake in transporter-overexpressing cells and that in the empty-vector-transfected control. […] Vmax is the maximum transport velocity, while Km is defined as the substance concentration that is required to reach half of vmax. The ratio of vmax over Km is termed intrinsic clearance Clint. For inhibition experiments, the transport activity was calculated by using the following equation [drawing 1]
(§4) SubstrateEV refers to the passive uptake of model substrates into the control cells and substratenoninhibited is the uptake in transporter-overexpressing cells without the presence of any inhibitor. The percent inhibition values are then calculated as described in the following [drawing 2]
(§5) For concentration inhibition experiments, the transporter activity was plotted against the log10 of inhibitor concentrations, and the data were fitted by the following equation to determine IC50 values [drawing 3]
(§6) Y refers to the transporter activity, whereas Ymax is the maximum and Ymin is the minimal transporter activity. X is the log10 of inhibitor concentrations, IC50 is the half-maximal inhibitory concentration, and hill slope is the slope factor.

OCT3 = biological target: T2, OCT3 (Homo sapiens, UniProt O75751); assay: Inhibition of model substrate uptake in OCT3-overexpressing HEK293 cells; assay type: cell-based; details: for (S)-Zolmitriptan inhibition [%] / (S,S)-Ethambutol inhibition [%] / ASP+ inhibition [%]: OCT3; for (S)-Zolmitriptan inhibition [%]: 2 μM (S)-zolmitriptan; for (S,S)-Ethambutol inhibition [%]: 2 μM (S,S)-ethambutol
T2 construct: expressed in transfected cells; host or cells: HEK293
T2 sequence (O75751 1-556): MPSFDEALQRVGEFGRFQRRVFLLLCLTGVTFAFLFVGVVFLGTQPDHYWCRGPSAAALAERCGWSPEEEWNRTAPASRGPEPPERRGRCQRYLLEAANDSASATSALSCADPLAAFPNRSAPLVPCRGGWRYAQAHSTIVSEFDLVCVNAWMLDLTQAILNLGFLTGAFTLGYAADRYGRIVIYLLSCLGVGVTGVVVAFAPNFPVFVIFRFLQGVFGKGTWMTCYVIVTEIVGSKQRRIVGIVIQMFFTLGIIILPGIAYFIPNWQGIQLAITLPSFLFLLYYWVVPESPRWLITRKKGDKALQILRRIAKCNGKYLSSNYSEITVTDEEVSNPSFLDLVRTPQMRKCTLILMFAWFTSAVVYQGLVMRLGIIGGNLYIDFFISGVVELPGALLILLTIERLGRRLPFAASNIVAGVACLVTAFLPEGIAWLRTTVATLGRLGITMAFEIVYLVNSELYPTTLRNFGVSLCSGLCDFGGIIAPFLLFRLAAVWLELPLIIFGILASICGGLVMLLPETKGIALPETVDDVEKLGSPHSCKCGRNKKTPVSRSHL
Method: as §1, §2, §3, §4, §5, §6

OCT1 = biological target: T3, OCT1 (Homo sapiens, UniProt O15245); assay: Inhibition of model substrate uptake in OCT1-overexpressing HEK293 cells; assay type: cell-based; set-up: expressed in transfected cells; host or cells: HEK293; details: for inhibition at 5 min, 20 μM: OCT1-overexpressing HEK293 cells
T3 sequence (O15245 1-554): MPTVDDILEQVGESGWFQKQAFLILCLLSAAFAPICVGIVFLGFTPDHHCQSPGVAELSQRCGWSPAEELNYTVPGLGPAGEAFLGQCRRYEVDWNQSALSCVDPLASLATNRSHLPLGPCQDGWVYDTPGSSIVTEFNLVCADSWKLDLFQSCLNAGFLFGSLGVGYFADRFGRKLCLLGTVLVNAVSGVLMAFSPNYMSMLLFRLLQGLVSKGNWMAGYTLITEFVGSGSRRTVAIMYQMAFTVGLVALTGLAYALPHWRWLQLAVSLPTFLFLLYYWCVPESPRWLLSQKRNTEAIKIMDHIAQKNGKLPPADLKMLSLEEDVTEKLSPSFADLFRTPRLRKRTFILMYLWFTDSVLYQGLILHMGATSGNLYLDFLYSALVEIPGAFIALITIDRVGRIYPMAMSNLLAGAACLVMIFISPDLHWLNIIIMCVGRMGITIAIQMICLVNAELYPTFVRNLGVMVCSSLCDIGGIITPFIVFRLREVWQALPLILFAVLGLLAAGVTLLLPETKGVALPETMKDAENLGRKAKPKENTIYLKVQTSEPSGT
Method: Koepsell and Gorbulev (University of Würzburg, Germany).
Fluorescence quantification was performed in technical duplicates.

[1] = OCT2, 20 μM inhibitor, 2 μM ASP+, 5 min
[2] = OCT2, 20 μM inhibitor, 2 μM N-ethyllidocaine, 5 min
[3] = 20 μM inhibitor, 2 μM ASP+, 5 min
[4] = OCT1, 20 μM inhibitor, 2 μM (S,S)-ethambutol, 5 min
[5] = OCT1, 20 μM inhibitor, 2 μM ASP+, 5 min, mean of three experiments
[6] = OCT1, 20 μM inhibitor, 2 μM sumatriptan, 5 min
[7] = pH 7.4, probe (S,S)-ethambutol (2 μM), (S,S)-Ethambutol inhibition [%], OCT2, 20 μM inhibitor, 2 μM (S,S)-ethambutol, 5 min
[8] = pH 7.4, probe ASP+ (2 μM), ASP+ inhibition [%], OCT2, 20 μM inhibitor, 2 μM ASP+, 5 min
[9] = pH 7.4, probe N-ethyllidocaine (2 μM), N-Ethyllidocaine inhibition [%], OCT2, 20 μM inhibitor, 2 μM N-ethyllidocaine, 5 min
[10] = HEK293, 5 min, read-out: (S)-Zolmitriptan inhibition [%]
[11] = HEK293, 5 min, read-out: (S,S)-Ethambutol inhibition [%]

| Structure (SMILES) | ASP+ inhibition [%] (OCT2; [1]) | N-Ethyllidocaine inhibition [%] (OCT2; [2]) | (S)-Zolmitriptan inhibition [%] (OCT3; 20 μM inhibitor, 5 min) | (S,S)-Ethambutol inhibition [%] (OCT3; 20 μM inhibitor, 5 min) | ASP+ inhibition [%] (OCT3; [3]) | (S,S)-Ethambutol inhibition [%] (OCT1; [4]) | ASP+ inhibition [%] (OCT1; [5]) | Sumatriptan inhibition [%] (OCT1; [6]) | inhibition at 5 min, 20 μM (OCT2; [7]) | inhibition at 5 min, 20 μM (OCT2; [8]) | inhibition at 5 min, 20 μM (OCT2; [9]) | inhibition at 20 µM (OCT3; [10]) | inhibition at 20 µM (OCT3; [11]) | Sumatriptan inhibition [%] (OCT1; human, pH 7.4) | also measured |
| --- | --- | --- | --- | --- | --- | --- | --- | --- | --- | --- | --- | --- | --- | --- | --- |
| NC[C@@H](O)c1ccc(O)c(O)c1 [(S)-Norepinephrine] | 20.5% | 7.1% | -6.6% | 12.5% | -3.5% | 6.1% | -3.3% | 6.6% |  |  |  |  |  |  | (S,S)-Ethambutol inhibition [%] (OCT2; OCT2, 20 μM inhibitor, 2 μM (S,S)-ethambutol, 5 min): 5.1% |
| CNCC[C@@H](Oc1cccc2ccccc12)c1cccs1 [(R)-Duloxetine] |  |  |  |  |  |  |  |  | 33.2% | 53.3% | 50.1% | 1.6% | 16.7% |  | IC50 (OCT2; IC50): 25.3 µM; inhibition at 20 µM (OCT3; HEK293, read-out: ASP+ inhibition [%]): 3.8%; inhibition at 5 min, 20 μM (OCT1; human, pH 7.4, probe (S,S)-ethambutol (2 μM), (S,S)-Ethambutol inhibition [%], OCT1, 20 μM inhibitor, 2 μM (S,S)-ethambutol, 5 min): 85.1%; inhibition at 5 min, 20 μM (OCT1; human, pH 7.4, probe ASP+ (2 μM), OCT1, 20 μM inhibitor, 2 μM ASP+, 5 min, mean of three experiments, read-out: ASP+ inhibition [%]): 41.3%; inhibition at 5 min, 20 μM (OCT1; human, pH 7.4, probe sumatriptan (2 μM), OCT1, 20 μM inhibitor, 2 μM sumatriptan, 5 min, read-out: Sumatriptan inhibition [%]): 86.8% |
| COc1ccc([C@H](CN(C)C)C2(O)CCCCC2)cc1 [(R)-Venlafaxine] | 29.1% | 23.1% |  |  |  |  |  |  |  |  |  | 12.6% | 12.3% | 70.8% | inhibition at 20 µM (OCT3; HEK293, OCT3, 20 μM inhibitor, 2 μM ASP+, 5 min, read-out: ASP+ inhibition [%]): -2.8% |
| C#CCN[C@H]1CCc2ccccc21 [(S)-Rasagiline] |  |  | 6.7% | 8.8% | -7.7% | 37.5% | 6.9% | 50.6% | 57% | 59.6% | 59.5% |  |  |  |  |
| CC(C)C[C@@H](N(C)C)C1(c2ccc(Cl)cc2)CCC1 [(R)-Sibutramine] | 81.6% | 51.2% |  |  | 2.6% |  | 41.5% |  |  |  |  | 38.1% | 35.5% | 74.0% |  |

— paper PMC10698726 (Molecular Pharmaceutics, 2023)
